Consider one compound from patent publication US10106565B2 (priority 2008, dated 2018).

Experiment [1] has as its system purified CD4 T lymphocytes. Format: cell-based, human. The note with it: 20 μM dendrimer; anti-CD3/anti-CD28 microbeads and IL2; without dendrimer 88%. How it is done:
PBMC from adult healthy volunteers are prepared as described in example 5.1.
CD4 T lymphocytes are then purified from PBMC by positive selection using microbeads conjugated with anti-CD4 mAb, according to the manufacturer's instructions (Miltenyi Biotec). The cells obtained after the purification are >98% pure (as verified by flow cytometry).
Purified CD4 T lymphocytes are cultured at a final concentration of 1.5×10^6 cells/mL in complete RPMI 1640 medium (as described in example 5.1). Then, their proliferation is triggered by microbeads coated with anti-CD3 and anti-CD28 mAbs (Dynabeads®, Dynal Biotech ASA). Dendrimer Gc1 and its analogs are made soluble in sterile water at 2 mM and filtered through a 0.2 μm membrane before use at 20 μM in culture.
Proliferation of purified CD4 T lymphocytes is evaluated by flow cytometry by analyzing the intracellular dilution of a fluorescent probe: the CFSE.

Experiment [2] has as its system mice immunized against myelin oligodendrocyte protein peptide 35-55. Description: Experimental Autoimmune Encephalomyelitis (EAE) mouse model. The note with it: 45 days post-immunization, control about 4. Type of experiment: in vivo. The source says:
Experimental Autoimmune Encephalomyelitis (EAE) is an inflammatory disease of the Central Nervous System (CNS) that shares clinical and immunopathological similarities with Multiple Sclerosis (MS). The model we have chosen is the classical model of active EAE induced by an immunization against myelin oligodendrocyte protein (MΦG) peptide 35-55 in mice. This leads to a chronic-progressive form of EAE resembling MS. Therefore, it is considered as a good model. Disease severity is scored on a clinical scale of 0 to 5 (0 being no detectable sign of EAE, 4 being tetraparalysis and 5 moribund or death). After MΦG-immunization, EAE scores for motor functions have been evaluated daily for 45 days for each animal. A preventive protocol (FIG. 17A) and a therapeutic protocol (FIG. 17B) have been tested. In both cases, mice are immunized with the MΦG peptide at Day 0 (first arrow of FIGS. 17A and 17B, corresponding to day 0 post-immunization). In the preventive protocol, intravenous administration of 10 mg/kg of dendrimer ABP started at Day 1 (FIG. 17A, second arrow, corresponding to 1 day post-immunization) and then every three days. In the therapeutic protocol, administration of ABP started once the disease is established at Day 18 (FIG. 17B, second arrow, corresponding to 18 days post-immunization), in the same conditions as the preventive protocol.

The test system of a further experiment is human monocytes. Description: Differentiation of monocytes in osteoclasts (M-CSF and sRANK-Ligand). Type of experiment: cell-based. How it is done:
PBMC from adult healthy volunteers are prepared as described in example 1.
Monocytes are then purified by negative selection using a kit containing a mixture of mouse anti-human mAbs and superparamagnetic polystyrene beads coated with a human anti-mouse IgG mAbs, according to the manufacturer's instructions (Dynal). The cells obtained after the purification are >90% pure.
Pure monocytes are activated or not during 6 hours with 20 μM of dendrimer Gc1. After three washings, activated and not activated monocytes are cultured for 21 days in α-MEM complete medium, i.e. supplemented with 10% of heat inactivated fetal calf serum (FCS) (Invitrogen), 2 mM L-glutamine, 100 U/mL penicillin and 100 μg/mL streptomycin (Cambrex Bioscience) in presence or not of 20 μM of dendrimer Gc1. To generate osteoclasts, 50 ng/mL of M-CSF (PeproTech) and 30 ng/mL of sRANK-Ligand (PeproTech) are added to the culture medium. Each three days, half medium is changed and 25 ng/mL of M-CSF and 100 ng/mL of sRANK-Ligand are added. At day 21, the cells are fixed and stained with the leucocyte phosphatase acid kit according to the manufacturer's instructions (Sigma-Aldrich).

In a further experiment the test system is CD4 T cells. Description: Allogenic mixed leucocyte reaction (MLR) with activated monocytes. Format: cell-based, human. The settings on record: 20 μM, 24 hours activation; PBL:monocyte ratios 4:1 to 100:1; vs alt- and class-monocytes. How it is done: For the functional experiments, freshly purified monocytes are cultured in 6-well plates. The cells are stimulated for 24 hours (immunophenotyping by flow cytometry analyses, MLR) or 96 hours (CD206 detection) with different stimuli or remain untreated (control). Dendrimer-activated monocytes (da-monocytes) are obtained with 20 μM of the dendrimer Gc1, alternatively-activated monocytes (alt-monocytes) with 10 U/mL recombinant human IL4 (Peprotech). The classical activation of monocytes is obtained by priming the cells over night (18 hours) with 100 U/mL of human recombinant IFN-γ (R&D Systems) and, after a washing step in PBS, by stimulation with 10 ng/mL LPS from E. coli 011/B4 strain (InvivoGen) for the remaining 6 hours or […].
MLR are performed in 96-well round bottom plates in a total volume of 200 μL in complete RPMI 1640 medium. […] The proliferation of the CD4 T cells is analyzed by measuring the cytoplasmic dilution of CFSE (as described in 5.1. Methods). […] Then, CFSE dilution is analyzed by flow cytometry to measure the proliferation of alloantigen-induced CD4 T cells. After gating for CD4 positive cells CFSE fluorescence intensities are analyzed, and the percentage of CD4 T cells which have proliferated during the MLR is taken into account. […] The overall differences are evaluated by analysis of variance test (ANOVA) with Sigma Stat software (Systat Software).

Take `CN(/N=C/c1ccc(OP2(Oc3ccc(/C=N/N(C)P(=S)(Oc4ccc(CCN(CP(=O)(O)O)CP(=O)(O)O)cc4)Oc4ccc(CCN(CP(=O)(O)O)CP(=O)(O)O)cc4)cc3)=NP(Oc3ccc(/C=N/N(C)P(=S)(Oc4ccc(CCN(CP(=O)(O)O)CP(=O)(O)O)cc4)Oc4ccc(CCN(CP(=O)(O)O)CP(=O)(O)O)cc4)cc3)(Oc3ccc(/C=N/N(C)P(=S)(Oc4ccc(CCN(CP(=O)(O)O)CP(=O)(O)O)cc4)Oc4ccc(CCN(CP(=O)(O)O)CP(=O)(O)O)cc4)cc3)=NP(Oc3ccc(/C=N/N(C)P(=S)(Oc4ccc(CCN(CP(=O)(O)O)CP(=O)(O)O)cc4)Oc4ccc(CCN(CP(=O)(O)O)CP(=O)(O)O)cc4)cc3)(c3ccc(/C=N/N(C)P(=S)(Oc4ccc(CCN(CP(=O)(O)O)CP(=O)(O)O)cc4)Oc4ccc(CCN(CP(=O)(O)O)CP(=O)(O)O)cc4)cc3)=N2)cc1)P(=S)(Oc1ccc(CCN(CP(=O)(O)O)CP(=O)(O)O)cc1)Oc1ccc(CCN(CP(=O)(O)O)CP(=O)(O)O)cc1` (stereo not drawn) [Gc1]: the “purified CD4 T lymphocytes that have divided” value in experiment [1] turned out to be 10.2%. In addition, the “disease severity clinical score (EAE, scale 0 to 5)” value is reported as “less than 1” in experiment [2] (preventive protocol: 10 mg/kg intravenous from Day 1, every three days) and “about 1” in experiment [2] (therapeutic protocol: 10 mg/kg intravenous from Day 18, every three days). Besides, the “differentiation of human monocytes in osteoclasts” value in the experiment on human monocytes (20 μM added in the culture medium, 21 days) was “inhibits”; in the experiment with human monocytes (monocytes pre-incubated with 20 μM during 6 hours, then rinsed) it was “inhibition”. The “MLR activation (divided CD4+ T lymphocytes) by da-monocytes” value in the experiment on CD4 T cells was “lowest activating effect on MLR”.
